The values below come from patent publication US8901118B2, “Compounds and methods for kinase modulation, and indications therefor” (Plexxikon Inc., priority 2010, dated 2014).

SMILES strings stand for the structures.

What all share (format): cell-based
For experiment [1], the target named is T1, BCR-KIT BaF3 cells (Homo sapiens, UniProt P10721).
T1 construct: fused on or other part: P11274 (Breakpoint cluster region protein)
Kind of experiment: BaF3 BCR-KIT cell proliferation assay (ATPlite). To be noted: read-out: Inhibition of Cell Proliferation IC50, BCR/BaF3 Kit. The gist of the method: (§1)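 Cells are plated overnight: BaF3 at 10,000/well in G418 medium without WEHI/IL-3, MV-4-11 at 25,000/well in IMDM with 10% FBS. An 8-point 1:3 compound titration (10 μM top) is then added, and plates are incubated 3 days at 37 °C before ATPlite readout and IC50 determination.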

Experiment [2] addresses T2, BCR-NTRK1 BaF3 cells (Homo sapiens, UniProt P04629).
T2 construct: fused on or other part: P11274 (Breakpoint cluster region protein)
Kind of experiment: BaF3 BCR-NTRK1 cell proliferation assay (ATPlite). To be noted: read-out: Inhibition of Cell Proliferation IC50, BCR/BaF3 TrkA. The gist of the method:
as §1

Experiment [3] has as its target T3, BCR-NTRK2 BaF3 cells (Homo sapiens, UniProt Q16620).
T3 construct: fused on or other part: P11274 (Breakpoint cluster region protein)
Kind of experiment: BaF3 BCR-NTRK2 cell proliferation assay (ATPlite). To be noted: read-out: Inhibition of Cell Proliferation IC50, BCR/BaF3 TrkB. A digest of the protocol: as §1
A general note: Cellular ATP, detected with luciferase, serves as a proxy for viable cell number.

T3 sequence (Q16620 538-807): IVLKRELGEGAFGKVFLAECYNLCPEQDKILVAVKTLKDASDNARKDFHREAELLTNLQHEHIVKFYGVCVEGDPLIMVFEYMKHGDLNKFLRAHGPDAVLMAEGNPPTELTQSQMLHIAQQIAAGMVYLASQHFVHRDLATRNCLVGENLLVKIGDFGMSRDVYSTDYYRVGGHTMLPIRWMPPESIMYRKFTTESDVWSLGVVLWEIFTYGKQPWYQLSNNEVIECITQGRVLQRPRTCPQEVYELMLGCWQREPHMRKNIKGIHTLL
T2 sequence (P04629 510-781): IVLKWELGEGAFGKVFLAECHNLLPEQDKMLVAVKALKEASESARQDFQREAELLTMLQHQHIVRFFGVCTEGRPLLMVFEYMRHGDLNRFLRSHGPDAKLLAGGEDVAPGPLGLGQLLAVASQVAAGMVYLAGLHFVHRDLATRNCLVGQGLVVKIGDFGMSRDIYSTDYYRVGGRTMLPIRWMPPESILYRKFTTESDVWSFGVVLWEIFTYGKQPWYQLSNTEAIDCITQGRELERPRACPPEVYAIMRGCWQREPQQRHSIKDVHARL
T1 sequence (P10721 589-937): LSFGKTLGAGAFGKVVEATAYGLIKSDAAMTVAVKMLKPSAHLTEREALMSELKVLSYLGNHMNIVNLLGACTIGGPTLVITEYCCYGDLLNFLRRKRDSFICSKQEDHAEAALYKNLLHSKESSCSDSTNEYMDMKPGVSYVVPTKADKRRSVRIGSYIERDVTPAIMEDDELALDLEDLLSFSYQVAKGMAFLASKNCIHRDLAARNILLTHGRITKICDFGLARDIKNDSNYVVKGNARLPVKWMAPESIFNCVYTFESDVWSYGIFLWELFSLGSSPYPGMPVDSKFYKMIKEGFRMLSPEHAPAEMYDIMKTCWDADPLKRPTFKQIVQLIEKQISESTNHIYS

With `Clc1cnc2[nH]cc(Cc3cnc(NC4CCCCC4)nc3)c2c1` [Compound P-3001, [5-(5-chloro-1H-pyrrolo[2,3-b]pyridin-3-ylmethyl)-pyrimidin-2-yl]-cyclohexyl-amine], the values for the IC50 in experiment [1], in experiment [2] and in experiment [3] were more than 1000 nM, more than 10000 nM and more than 10000 nM, respectively.
`Clc1cnc2[nH]cc(Cc3cnc(NC4CCCC4)nc3)c2c1` [Compound P-3003, [5-(5-Chloro-1H-pyrrolo[2,3-b]pyridin-3-ylmethyl)-pyrimidin-2-yl]-cyclopentyl-amine]: the IC50 in experiment [1] is more than 1000 nM.
Regarding `FC1(F)CCC(Nc2ncc(Cc3c[nH]c4ncc(Cl)cc34)cn2)CC1` [Compound P-3004], the IC50 was more than 1000 nM in experiment [1], less than 10000 nM in experiment [2] and less than 10000 nM in experiment [3].
Regarding `Clc1cnc2[nH]cc(Cc3cnc(NC4CC4)nc3)c2c1` [Compound P-3005, [5-(5-Chloro-1H-pyrrolo[2,3-b]pyridin-3-ylmethyl)-pyrimidin-2-yl]-cyclopropyl-amine], the IC50 in experiment [1] was more than 1000 nM; in experiment [2], more than 10000 nM; in experiment [3], more than 10000 nM.
`Clc1cnc2[nH]cc(Cc3cnc(NC4CCCCCC4)nc3)c2c1` [Compound P-3006, [5-(5-Chloro-1H-pyrrolo[2,3-b]pyridin-3-ylmethyl)-pyrimidin-2-yl]-cycloheptyl-amine]: the IC50 in experiment [1] was more than 1000 nM; in experiment [2] it was less than 20000 nM; in experiment [3], more than 10000 nM.
The corresponding values for `COc1ccccc1Nc1ncc(Cc2c[nH]c3ncc(Cl)cc23)cn1` [Compound P-3016, [5-(5-Chloro-1H-pyrrolo[2,3-b]pyridin-3-ylmethyl)-pyrimidin-2-yl]-(2-methoxy-phenyl)-amine] are more than 1000 nM, more than 10000 nM and more than 10000 nM.
Taken in the same sequence, the figures for `Fc1cccc(Nc2ncc(Cc3c[nH]c4ncc(Cl)cc34)cn2)c1` [Compound P-3017, [5-(5-Chloro-1H-pyrrolo[2,3-b]pyridin-3-ylmethyl)-pyrimidin-2-yl]-(3-fluoro-phenyl)-amine] were more than 1000 nM, more than 10000 nM and more than 10000 nM.
The corresponding values for `Cc1cnc2[nH]cc(Cc3cnc(Nc4ccc(C(F)(F)F)nc4)nc3)c2c1` [Compound P-3018, [5-(5-Methyl-1H-pyrrolo[2,3-b]pyridin-3-ylmethyl)-pyrimidin-2-yl]-(6-trifluoromethyl-pyridin-3-yl)-amine] are less than 100 nM, less than 1000 nM and less than 100 nM.
Take `COc1ccc(Nc2ccc(Cc3c[nH]c4ncc(C)cc34)c(F)n2)cn1` [Compound P-3019, [6-fluoro-5-(5-methyl-1H-pyrrolo[2,3-b]pyridin-3-ylmethyl)-pyridin-2-yl]-(6-methoxy-pyridin-3-yl)-amine]: the IC50 in experiment [1] is less than 1000 nM; in experiment [2], less than 100 nM; in experiment [3], less than 100 nM.
For `COc1ccc(Nc2ncc(Cc3c[nH]c4ncc(C)cc34)cn2)cn1` [Compound P-3020, (6-Methoxy-pyridin-3-yl)-[5-(5-methyl-1H-pyrrolo[2,3-b]pyridin-3-ylmethyl)-pyrimidin-2-yl]-amine], the IC50 in experiment [1], in experiment [2] and in experiment [3] was less than 100 nM throughout.
With `COc1ccc(Nc2ncc(Cc3c[nH]c4ncc(C)cc34)cn2)cc1` [Compound P-3021, (4-Methoxy-phenyl)-[5-(5-methyl-1H-pyrrolo[2,3-b]pyridin-3-ylmethyl)-pyrimidin-2-yl]-amine], the IC50 is less than 100 nM in experiment [1], less than 1000 nM in experiment [2] and less than 100 nM in experiment [3].
Consider `COc1cc(Nc2ncc(Cc3c[nH]c4ncc(C)cc34)cn2)ccc1F` [Compound P-3022, (4-Fluoro-3-methoxy-phenyl)-[5-(5-methyl-1H-pyrrolo[2,3-b]pyridin-3-ylmethyl)-pyrimidin-2-yl]-amine], for which the IC50 in experiment [1] was less than 100 nM; in experiment [2], less than 1000 nM; in experiment [3], less than 1000 nM.
In the case of `COc1ccc(Nc2ncc(Cc3c[nH]c4ncc(C)cc34)cn2)cc1F` [Compound P-3023, (3-Fluoro-4-methoxy-phenyl)-[5-(5-methyl-1H-pyrrolo[2,3-b]pyridin-3-ylmethyl)-pyrimidin-2-yl]-amine], the figures for the IC50 in experiment [1], in experiment [2] and in experiment [3] were less than 100 nM, less than 1000 nM and less than 1000 nM, respectively.
As for `CCCOc1ccc(Nc2ncc(Cc3c[nH]c4ncc(C)cc34)cn2)cc1` [Compound P-3024, [5-(5-Methyl-1H-pyrrolo[2,3-b]pyridin-3-ylmethyl)-pyrimidin-2-yl]-(4-propoxy-phenyl)-amine], the IC50 is less than 100 nM in experiment [1], less than 1000 nM in experiment [2] and less than 1000 nM in experiment [3].
`CCc1ccc(Nc2ncc(Cc3c[nH]c4ncc(C)cc34)cn2)cc1` [Compound P-3025, (4-Ethyl-phenyl)-[5-(5-methyl-1H-pyrrolo[2,3-b]pyridin-3-ylmethyl)-pyrimidin-2-yl]-amine]: the IC50 in experiment [1], in experiment [2] and in experiment [3] was less than 10 nM each time.
Consider `CCc1ccc(Nc2ccc(Cc3c[nH]c4ncc(C)cc34)c(F)n2)cn1` [Compound P-3048, (6-Ethyl-pyridin-3-yl)-[6-fluoro-5-(5-methyl-1H-pyrrolo[2,3-b]pyridin-3-ylmethyl)-pyridin-2-yl]-amine], for which the IC50 in experiment [1] and in experiment [2] was less than 100 nM throughout.
In the case of `CCc1ccc(Nc2ccc(C(=O)c3c[nH]c4ncc(C)cc34)c(F)n2)cn1` [Compound P-3049, [6-(6-Ethyl-pyridin-3-ylamino)-2-fluoro-pyridin-3-yl]-(5-methyl-1H-pyrrolo[2,3-b]pyridin-3-yl)-methanone], the IC50 was less than 100 nM in experiment [1] and less than 10 nM in experiment [2].
Regarding `Cc1cnc2[nH]cc(Cc3ccc(Nc4ccc(C5CC5)nc4)nc3F)c2c1` [Compound P-3050, (6-Cyclopropyl-pyridin-3-yl)-[6-fluoro-5-(5-methyl-1H-pyrrolo[2,3-b]pyridin-3-ylmethyl)-pyridin-2-yl]-amine], the IC50 in experiment [1] is less than 1000 nM; in experiment [2] it was less than 100 nM.
Taken in the same sequence, the figures for `Cc1cnc2[nH]cc(C(=O)c3ccc(Nc4ccc(C5CC5)nc4)nc3F)c2c1` [Compound P-3051, [6-(6-Cyclopropyl-pyridin-3-ylamino)-2-fluoro-pyridin-3-yl]-(5-methyl-1H-pyrrolo[2,3-b]pyridin-3-yl)-methanone] were less than 1000 nM and less than 100 nM.
With `O=C(c1ccc(Nc2ccc(C3CC3)nc2)nc1F)c1c[nH]c2ncccc12` [Compound P-3052, [6-(6-Cyclopropyl-pyridin-3-ylamino)-2-fluoro-pyridin-3-yl]-(1H-pyrrolo[2,3-b]pyridin-3-yl)-methanone], the IC50 in experiment [2] is less than 100 nM.
Consider `Fc1nc(Nc2ccc(C3CC3)nc2)ccc1Cc1c[nH]c2ncccc12` [Compound P-3053, (6-Cyclopropyl-pyridin-3-yl)-[6-fluoro-5-(1H-pyrrolo[2,3-b]pyridin-3-ylmethyl)-pyridin-2-yl]-amine], for which, in experiment [2], the IC50 is less than 100 nM.
Take `CCn1cc(Nc2ccc(C(=O)c3c[nH]c4ncnc(C5CC5)c34)c(F)n2)cn1` [Compound P-4037, (4-Cyclopropyl-7H-pyrrolo[2,3-d]pyrimidin-5-yl)-[6-(1-ethyl-1H-pyrazol-4-ylamino)-2-fluoro-pyridin-3-yl]-methanone]: the IC50 in experiment [1] and in experiment [2] was less than 100 nM throughout.
